Measurements from patent US20260232642A1, “RNA-BINDING MOLECULES WITH A SMALL CORE SCAFFOLD (R-SCORE) AND USES THEREOF” (Max-Planck-Gesellschaft zur Förderung der Wissenschaften …, priority 2022, published 2026).
Read-outs that look alike come from different tables or passages of the source.

Key:
MCF-7 cells = experiment: MTT assay, MCF-7; format: cell-based, human; details: breast cancer cell line, read-out: Cell lines IC50 [μM] MCF-7
Method: (§1) MAD-MB-231, MCF-7 and JAR cells were cultured in Dulbecco's modified Eagle's (DMEM) medium supplemented with 10% Fetal Bovine Serum (FBS), 100 u/mL penicillin-streptomycin. Jurkat, Molt-4 and Ramos cells were cultured in Roswell Park Memorial Institute (RPMI) 1640 medium with 10% Fetal Bovine Serum (FBS), 100 u/mL penicillin-streptomycin. All cell lines grown in an incubator with humidified 5% CO2 at 37° C.
(§2) Jurkat, Molt-4 and Ramos cells were collected and seeded into 96-well plates at a density of 8000-10000 per well and treated with compounds. MCF-7, MDA-MB-231 and JAR cells were collected and seeded into 96-well plates at a density of 2000-3000 per well and cultured overnight to adherent before treat with compounds. After exposed to increasing concentrations of compounds for 72 h, the cells in each well were mixed with 20 μL of 5 mg/ml MTT (3-(4,5-dimethylthiazol-2-yl)-2,5-diphenyltetrazolium bromide) for 2 h, then add 50 μL of 20% SDS/0.01 M HCl incubated overnight, and detected the absorbance at a wavelength of 570 nm.
(§3) Inhibition rate was calculated using the equation: […]
(§4) The IC50 values were calculated by using GraphPad Prism 9 software fitting to a dose-response inhibition equation.

[1] = tested on: precursor microRNA-21 hairpin (pre-miR-21 hp); experiment: Differential scanning fluorimetry (DSF), pre-miR-21 hairpin; format: binding; details: 60 uM compound, 1 μM hairpin in PBS, Tm of compound minus Tm of DMSO control
Method: (§5) To measure the binding between compounds and precursor microRNA-21 hairpin (pre-miR-21 hp) or precursor microRNA-17 hairpin (pre-miR-17 hp), DSF was performed as previously described with modification (ACS Chem. Biol. 2017, 12, 2, 435-443). Precursor microRNA hairpin was dissolved in PBS and annealed by briefly heating to 95° C. for 3 min and slowly cooling to rt. Assay was performed in duplicates using white qPCR 8-strips (VWR) with a total volume of 10 μL in PBS. The total reaction consisted of 1 μM precursor microRNA hairpin, 1% test compound (DMSO dilution) and 2×SYBR GreenII (Thermo Fisher Scientific). Compounds were incubated with precursor microRNA hairpin at for 10 min at rt, then SYBR GreenII was added to each well, mixed and incubated 10 min at rt. The strips were spined and loaded to the RT-PCR detection system (BIO-RAD CFX Connect), the fluorescence intensity was obtained every 1° C. for 30 s in the range of 20° C. to 80° C.
(§6) The melting temperature (Tm) was determined by the maximum of the negative of the first derivative of the fluorescence vs temperature melting curves. The ΔTm was calculated by the Tm value of compound subtract the Tm value of the DMSO control.

MDA-MB-231 cells = experiment: MTT assay, MDA-MB-231; format: cell-based, human; details: breast cancer cell line, read-out: Cell lines IC50 [μM] MDA-MB-231
Method: as §1, §2, §3, §4

JAR cells = experiment: MTT assay, JAR; format: cell-based, human; details: 72 h, choriocarcinoma cell line, read-out: Cell lines IC50 [μM] JAR
Method: as §1, §2, §3, §4

[2] = tested on: precursor microRNA-17 hairpin (pre-miR-17 hp); experiment: Differential scanning fluorimetry (DSF), pre-miR-17 hairpin; format: binding; details: 60 uM compound, 1 μM hairpin in PBS, Tm of compound minus Tm of DMSO control
Method: as §5, §6

Jurkat cells = experiment: MTT assay, Jurkat; format: cell-based, human; details: 72 h, acute leukemia cell line, read-out: Cell lines IC50 [μM] Jurkat
Method: as §1, §2, §3, §4

Molt-4 cells = experiment: MTT assay, Molt-4; format: cell-based, human; details: acute leukemia cell line, read-out: Cell lines IC50 [μM] Molt-4
Method: as §1, §2, §3, §4

Ramos cells = experiment: MTT assay, Ramos; format: cell-based, human; details: 72 h, Burkitt lymphoma cell line, read-out: Cell lines IC50 [μM] Ramos
Method: as §1, §2, §3, §4

3-(4-(1H-benzo[d]imidazol-6-yl)phenyl)-1-(3-aminothieno[2,3-b]pyridine-2-carbonyl)-4-(hydroxymethyl)azetidine-2-carbonitrile [Compound A7]
IC50 (MCF-7 cells; 72 h): > 20 µM | ΔTm (pre-miR-21 hp) @60 uM [° C.] [1]: 0 °C | IC50 (MDA-MB-231 cells; 72 h): > 20 µM | IC50 (JAR cells): 5.74 µM | ΔTm (pre-miR-17 hp) @60 uM [° C.] [2]: 0 °C

N#CC1C(c2ccc(-c3ccc(C(F)(F)F)cc3)cc2)C(CO)N1C(=O)c1ccc(NC(=O)c2sc3ncccc3c2N)cc1 (stereo not shown) [Compound A1, 1-(1-amino-(3-aminothieno[2,3-b]pyridine-2-carbonyl)phenyl-4-carbonyl)-4-(hydroxymethyl)-3-(4′-(trifluoromethyl)-[1,1′-biphenyl]-4-yl) azetidine-2-carbonitrile]
IC50 (Jurkat cells; Homo sapiens, Jurkat): 2.81 µM | IC50 (Molt-4 cells; Homo sapiens, MOLT-4, 72 h): 2.91 µM | IC50 (MCF-7 cells; Homo sapiens, MCF7, 72 h): 5.95 µM | IC50 (Ramos cells; Homo sapiens, Ramos): 4.81 µM | ΔTm (pre-miR-21 hp) @60 uM [° C.] [1]: −2 °C | IC50 (MDA-MB-231 cells; Homo sapiens, MDA-MB-231, 72 h): 10 µM | IC50 (JAR cells; Homo sapiens): 2.95 µM | ΔTm (pre-miR-17 hp) @60 uM [° C.] [2]: −3 °C

N#CC1C(c2ccc(-c3ccc(C(F)(F)F)cc3)cc2)C(CO)N1C(=O)c1sc2ncccc2c1N (stereo not shown) [Compound A2, 1-(3-aminothieno[2,3-b]pyridine-2-carbonyl)-4-(hydroxymethyl)-3-(4′-(trifluoromethyl)-[1,1 biphenyl]-4-yl) azetidine-2-carbonitrile]
IC50 (Jurkat cells): 3.35 µM | IC50 (Molt-4 cells; 72 h): 4.61 µM | IC50 (Ramos cells): 3.8 µM | ΔTm (pre-miR-21 hp) @60 uM [° C.] [1]: −2.5 ± 0.5 °C | IC50 (JAR cells): 3.41 µM | ΔTm (pre-miR-17 hp) @60 uM [° C.] [2]: −2 °C

N#CC1C(c2ccc(-c3ccc(C(F)(F)F)cc3)cc2)C(CO)N1C(=O)c1sc2ncccc2c1N (stereo not shown) [Compound A3, 1-(3-aminothieno[2,3-b]pyridine-2-carbonyl)-4-(hydroxymethyl)-3-(4′-(trifluoromethyl)-[1,1′-biphenyl]-4-yl) azetidine-2-carbonitrile]
IC50 (Jurkat cells; Homo sapiens, Jurkat): 3.73 µM | IC50 (Molt-4 cells; 72 h): 10.8 µM | IC50 (MCF-7 cells; Homo sapiens, MCF7, 72 h): 6.22 µM | IC50 (Ramos cells; Homo sapiens, Ramos): 7.03 µM | ΔTm (pre-miR-21 hp) @60 uM [° C.] [1]: −6 °C | IC50 (MDA-MB-231 cells; Homo sapiens, MDA-MB-231, 72 h): 18.6 µM | IC50 (JAR cells): 9.75 µM | ΔTm (pre-miR-17 hp) @60 uM [° C.] [2]: −6.5 ± 0.5 °C

CCCN1C(CO)C(c2ccc(-c3ccc(C(F)(F)F)cc3)cc2)C1CNC(=O)c1sc2ncccc2c1N (stereo not shown) [Compound A4, 3-amino-N-((4-(hydroxymethyl)-1-propyl-3-(4′-(trifluoromethyl)-[1,1′-biphenyl]-4-yl)azetidin-2-yl)methyl) thieno[2,3-b]pyridine-2-carboxamide]
IC50 (MCF-7 cells; 72 h): 5.79 µM | ΔTm (pre-miR-21 hp) @60 uM [° C.] [1]: −2 °C | IC50 (MDA-MB-231 cells; 72 h): 7.02 µM | IC50 (JAR cells): 2.3 µM | ΔTm (pre-miR-17 hp) @60 uM [° C.] [2]: −1 °C

CCCN1C(CO)C(c2ccc(-c3ccc(C(F)(F)F)cc3)cc2)C1CNC(=O)c1sc2ncccc2c1N (stereo not shown) [Compound A5, 3-amino-N-((4-(hydroxymethyl)-1-propyl-3-(4′-(trifluoromethyl)-[1,1′-biphenyl]-4-yl)azetidin-2-yl)methyl) thieno[2,3-b]pyridine-2-carboxamide]
IC50 (Jurkat cells; Homo sapiens, Jurkat): 5.13 µM | IC50 (Molt-4 cells; Homo sapiens, MOLT-4, 72 h): 5.49 µM | IC50 (Ramos cells; Homo sapiens, Ramos): 5.05 µM

CCCN1C(CO)C(c2ccc(-c3ccc4nc[nH]c4c3)cc2)C1CNC(=O)c1sc2ncccc2c1N (stereo not shown) [Compound A8, N-((3-(4-(1H-benzo[d]imidazol-6-yl)phenyl)-4-(hydroxymethyl)-1-propylazetidin-2-yl)methyl)-3-aminothieno[2,3-b]pyridine-2-carboxamide]
IC50 (Jurkat cells; Homo sapiens, Jurkat): 19.1 µM | IC50 (Molt-4 cells; Homo sapiens, MOLT-4, 72 h): 8.5 µM | IC50 (Ramos cells; Homo sapiens, Ramos): 26.8 µM

CCCN1C(CO)C(c2ccc(-c3ccc4nc[nH]c4c3)cc2)C1CNC(=O)c1sc2ncccc2c1N (stereo not shown) [Compound A9, N-((3-(4-(1H-benzo[d]imidazol-6-yl)phenyl)-4-(hydroxymethyl)-1-propylazetidin-2-yl)methyl)-3-aminothieno[2,3-b]pyridine-2-carboxamide]
IC50 (Jurkat cells): > 20 µM | IC50 (Molt-4 cells; 72 h): 11.4 µM | IC50 (MCF-7 cells; Homo sapiens, MCF7, 72 h): > 20 µM | IC50 (Ramos cells): > 20 µM | ΔTm (pre-miR-21 hp) @60 uM [° C.] [1]: 0 °C | IC50 (MDA-MB-231 cells; Homo sapiens, MDA-MB-231, 72 h): > 20 µM | IC50 (JAR cells; Homo sapiens): 9.56 µM | ΔTm (pre-miR-17 hp) @60 uM [° C.] [2]: 0 °C

CNc1nc(N2CC(c3ccc(-c4c(C)noc4C)cc3)C2C#N)nc2ccccc12 (stereo not shown) [Compound B1, 3-(4-(3,5-dimethylisoxazol-4-yl)phenyl)-1-(4-(methylamino)quinazolin-2-yl) azetidine-2-carbonitrile]
IC50 (Jurkat cells; Homo sapiens, Jurkat): 6.31 µM | IC50 (Molt-4 cells; Homo sapiens, MOLT-4, 72 h): 7.01 µM | IC50 (MCF-7 cells; Homo sapiens, MCF7, 72 h): 9.92 µM | IC50 (Ramos cells): 7.35 µM | ΔTm (pre-miR-21 hp) @60 uM [° C.] [1]: 0 °C | IC50 (MDA-MB-231 cells; Homo sapiens, MDA-MB-231, 72 h): 14.4 µM | IC50 (JAR cells; Homo sapiens): 1.74 µM | ΔTm (pre-miR-17 hp) @60 uM [° C.] [2]: 0 °C

Cc1noc(C)c1-c1ccc(C2CN(C(=O)c3sc4ncccc4c3N)C2C#N)cc1 (stereo not shown) [Compound B3, 1-(3-aminothieno[2,3-b]pyridine-2-carbonyl)-3-(4-(3,5-dimethylisoxazol-4-yl)phenyl) azetidine-2-carbonitrile]
IC50 (MCF-7 cells; 72 h): 5.72 µM | IC50 (MDA-MB-231 cells; 72 h): 12.5 µM | IC50 (JAR cells): 1.28 µM

Cc1noc(C)c1-c1ccc(C2CN(C(=O)c3sc4ncccc4c3N)C2C#N)cc1 (stereo not shown) [Compound B4, 1-(3-aminothieno[2,3-b]pyridine-2-carbonyl)-3-(4-(3,5-dimethylisoxazol-4-yl)phenyl) azetidine-2-carbonitrile]
IC50 (Jurkat cells; Homo sapiens, Jurkat): 7.3 µM | IC50 (Molt-4 cells; Homo sapiens, MOLT-4, 72 h): 10.6 µM | IC50 (MCF-7 cells; 72 h): 12.5 µM | IC50 (Ramos cells; Homo sapiens, Ramos): 12.4 µM | ΔTm (pre-miR-21 hp) @60 uM [° C.] [1]: 0 °C | IC50 (MDA-MB-231 cells; Homo sapiens, MDA-MB-231, 72 h): > 20 µM | IC50 (JAR cells): 5.92 µM | ΔTm (pre-miR-17 hp) @60 uM [° C.] [2]: 0 °C

CNc1nc(N2CC(C3(C(F)(F)F)C=CC(c4ccccc4)=CC3)C2C#N)nc2ccccc12 (stereo not shown) [Compound B6, 1-(4-(methylamino)quinazolin-2-yl)-3-(4 (trifluoromethyl)-[1,1′-biphenyl]-4-yl) azetidine-2-carbonitrile]
IC50 (Jurkat cells; Homo sapiens, Jurkat): 5.47 µM | IC50 (Molt-4 cells; Homo sapiens, MOLT-4, 72 h): 4.79 µM | IC50 (MCF-7 cells; Homo sapiens, MCF7, 72 h): 5.23 µM | IC50 (Ramos cells; Homo sapiens, Ramos): 1.82 µM | IC50 (MDA-MB-231 cells; Homo sapiens, MDA-MB-231, 72 h): 7.07 µM | IC50 (JAR cells; Homo sapiens): 1.29 µM | ΔTm (pre-miR-17 hp) @60 uM [° C.] [2]: 1.25 °C

N#CC1C(c2ccc(-c3ccc(C(F)(F)F)cc3)cc2)CN1C(=O)c1sc2ncccc2c1N (stereo not shown) [Compound B7, 1-(3-aminothieno[2,3-b]pyridine-2-carbonyl)-3-(4′-(trifluoromethyl)-[1,1′-biphenyl]-4-yl) azetidine-2-carbonitrile]
IC50 (Jurkat cells; Homo sapiens, Jurkat): 7.42 µM | IC50 (Molt-4 cells; Homo sapiens, MOLT-4, 72 h): 13.9 µM | IC50 (Ramos cells; Homo sapiens, Ramos): 6.61 µM | IC50 (JAR cells): 1.16 µM | IC50 (JAR cells; Homo sapiens): 1.5 µM

CNc1nc(N2CC(c3ccc(-c4ccc5nc[nH]c5c4)cc3)C2C#N)nc2ccccc12 (stereo not shown) [Compound B10, 3-(4-(1H-benzo[d]imidazol-6-yl)phenyl)-1-(4-(methylamino)quinazolin-2-yl) azetidine-2-carbonitrile]
IC50 (Jurkat cells): 11.2 µM | IC50 (Molt-4 cells; 72 h): 12.1 µM | IC50 (MCF-7 cells; 72 h): 8.24 µM | IC50 (Ramos cells; Homo sapiens, Ramos): 8.27 µM | ΔTm (pre-miR-21 hp) @60 uM [° C.] [1]: 0 °C | IC50 (MDA-MB-231 cells; 72 h): 10.8 µM | IC50 (JAR cells): 4.78 µM | ΔTm (pre-miR-17 hp) @60 uM [° C.] [2]: 0 °C
